Results from US8202885B2, “Bridged six-membered ring compounds” (Actelion Pharmaceuticals Ltd., priority 2007, dated 2012).

Columns and labels:
[1] = tested on: human Cav3.1 Cav3.2 or Cav3.3 channel; experiment: In vitro assay T channel (FLIPR calcium fluorescence); format: cell-based; settings: HEK293 cells expressing human Cav3.1, Cav3.2 or Cav3.3; 10 mM Ca2+-induced fluo-4 fluorescence; determined up to 10 μM; read-out: T channel antagonistic activity IC50
Procedure, shortened: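 HEK293 cells stably expressing human Cav3.1, Cav3.2 or Cav3.3 loaded with fluo-4 AM (3 μM), preincubated 3 min with antagonist, then stimulated with 10 mM Ca2+ in TEA-chloride/HEPES buffer pH 7.2. FLIPR fluorescence read every 2 s for 8 min; IC50 from peak area versus vehicle, tested up to 10 μM.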

isolated mouse hearts = experiment: Effect on isolated hearts according to the Langendorff method (Lgdff)
Protocol: Effect on Isolated Hearts According to the Langendorff Method (Lgdff)
The compounds were tested for their potential to reduce blood pressure and their effect on the contractility of the heart muscle. EC50 values on isolated mouse hearts were determined according to Literature (Doring H J., The isolated perfused heart according to Langendorff technique—function—application, Physiol. Bohemoslov. 1990, 39(6), 481-504; Kligfield P, Horner H, Brachfeld N., A model of graded ischemia in the isolated perfused rat heart, J. Appl. Physiol. 1976 June, 40(6), 1004-8).
51 example compounds have been measured using the procedure described above for the Langendorff experiment. The measured EC50 values were in the range of 4 to 669 nM with an average of 37 nM.

human Cav1.2 channel = target: T1, human Cav1.2 channel (Homo sapiens, UniProt Q13936); experiment: In vitro assay L channel (FLIPR calcium fluorescence); format: cell-based; settings: HEK293 cells expressing human Cav1.2 with β-2a and α2δ-1; 20 mM KCl-induced fluo-4 fluorescence; determined up to 10 μM; read-out: L channel antagonistic activity (IC50)
T1 construct: expressed in transfected cells; host or cells: HEK293
Protocol: The L channel antagonistic activity (IC50 values) of the compounds of formula (I) is determined in accordance with the following experimental method.
Human embryonic kidney (HEK293) cells expressing the human Cav1.2 channel in addition to the auxiliary subunits β-2a and α2δ-1, are grown in culture medium (DMEM containing 10% heat-inactivated fetal calf serum (FCS), 100 U/ml penicillin, 100 μg/ml streptomycin, 100 μg/ml G418, 40 μg/ml zeocin and 100 μg/ml hygromycin). The cells are seeded at 20.000 cells/well into 384-well black clear bottom sterile plates (poly-L-lysine-coated, Becton Dickinson). The seeded plates are incubated overnight at 37° C. in 5% CO2. The KCl solution is prepared as 80 mM stock solution in assay buffer (HBSS containing 0.1% BSA, 20 mM HEPES, 0.375 g/l NaHCO3, adjusted to pH 7.4 with NaOH) for use in the assay at a final concentration of 20 mM. Antagonists are prepared as 10 mM stock solutions in DMSO, then diluted in 384 w plates first in DMSO, then in assay buffer to obtain 3× stocks. On the day of the assay, 25 μl of staining buffer (HBSS containing 20 mM HEPES, 0.375 g/l NaHCO3, and 3 μM of the fluorescent calcium indicator fluo-4 AM (1 mM stock solution in DMSO, containing 10% pluronic) is added to each well of the seeded plate. The 384-well cell-plates are incubated for 60 min at 37° C. in 5% CO2 followed by washing with 2×50 μl per well using assay buffer leaving 50 μl/well of this buffer for equilibration at room temperature (30-60 min). Within the Fluorescent Imaging Plate Reader (FLIPR, Molecular Devices), antagonists are added to the plate in a volume of 25 μl/well, incubated for 3 min and finally 25 μl/well of KCl solution is added for cellular depolarization. Fluorescence is measured for each well at 2 second intervals for 8 minutes, and the area under the curve of each fluorescence peak is compared to the area of the fluorescence peak induced by 20 mM KCl with vehicle in place of antagonist. […]

T1 sequence (Q13936 whole entry): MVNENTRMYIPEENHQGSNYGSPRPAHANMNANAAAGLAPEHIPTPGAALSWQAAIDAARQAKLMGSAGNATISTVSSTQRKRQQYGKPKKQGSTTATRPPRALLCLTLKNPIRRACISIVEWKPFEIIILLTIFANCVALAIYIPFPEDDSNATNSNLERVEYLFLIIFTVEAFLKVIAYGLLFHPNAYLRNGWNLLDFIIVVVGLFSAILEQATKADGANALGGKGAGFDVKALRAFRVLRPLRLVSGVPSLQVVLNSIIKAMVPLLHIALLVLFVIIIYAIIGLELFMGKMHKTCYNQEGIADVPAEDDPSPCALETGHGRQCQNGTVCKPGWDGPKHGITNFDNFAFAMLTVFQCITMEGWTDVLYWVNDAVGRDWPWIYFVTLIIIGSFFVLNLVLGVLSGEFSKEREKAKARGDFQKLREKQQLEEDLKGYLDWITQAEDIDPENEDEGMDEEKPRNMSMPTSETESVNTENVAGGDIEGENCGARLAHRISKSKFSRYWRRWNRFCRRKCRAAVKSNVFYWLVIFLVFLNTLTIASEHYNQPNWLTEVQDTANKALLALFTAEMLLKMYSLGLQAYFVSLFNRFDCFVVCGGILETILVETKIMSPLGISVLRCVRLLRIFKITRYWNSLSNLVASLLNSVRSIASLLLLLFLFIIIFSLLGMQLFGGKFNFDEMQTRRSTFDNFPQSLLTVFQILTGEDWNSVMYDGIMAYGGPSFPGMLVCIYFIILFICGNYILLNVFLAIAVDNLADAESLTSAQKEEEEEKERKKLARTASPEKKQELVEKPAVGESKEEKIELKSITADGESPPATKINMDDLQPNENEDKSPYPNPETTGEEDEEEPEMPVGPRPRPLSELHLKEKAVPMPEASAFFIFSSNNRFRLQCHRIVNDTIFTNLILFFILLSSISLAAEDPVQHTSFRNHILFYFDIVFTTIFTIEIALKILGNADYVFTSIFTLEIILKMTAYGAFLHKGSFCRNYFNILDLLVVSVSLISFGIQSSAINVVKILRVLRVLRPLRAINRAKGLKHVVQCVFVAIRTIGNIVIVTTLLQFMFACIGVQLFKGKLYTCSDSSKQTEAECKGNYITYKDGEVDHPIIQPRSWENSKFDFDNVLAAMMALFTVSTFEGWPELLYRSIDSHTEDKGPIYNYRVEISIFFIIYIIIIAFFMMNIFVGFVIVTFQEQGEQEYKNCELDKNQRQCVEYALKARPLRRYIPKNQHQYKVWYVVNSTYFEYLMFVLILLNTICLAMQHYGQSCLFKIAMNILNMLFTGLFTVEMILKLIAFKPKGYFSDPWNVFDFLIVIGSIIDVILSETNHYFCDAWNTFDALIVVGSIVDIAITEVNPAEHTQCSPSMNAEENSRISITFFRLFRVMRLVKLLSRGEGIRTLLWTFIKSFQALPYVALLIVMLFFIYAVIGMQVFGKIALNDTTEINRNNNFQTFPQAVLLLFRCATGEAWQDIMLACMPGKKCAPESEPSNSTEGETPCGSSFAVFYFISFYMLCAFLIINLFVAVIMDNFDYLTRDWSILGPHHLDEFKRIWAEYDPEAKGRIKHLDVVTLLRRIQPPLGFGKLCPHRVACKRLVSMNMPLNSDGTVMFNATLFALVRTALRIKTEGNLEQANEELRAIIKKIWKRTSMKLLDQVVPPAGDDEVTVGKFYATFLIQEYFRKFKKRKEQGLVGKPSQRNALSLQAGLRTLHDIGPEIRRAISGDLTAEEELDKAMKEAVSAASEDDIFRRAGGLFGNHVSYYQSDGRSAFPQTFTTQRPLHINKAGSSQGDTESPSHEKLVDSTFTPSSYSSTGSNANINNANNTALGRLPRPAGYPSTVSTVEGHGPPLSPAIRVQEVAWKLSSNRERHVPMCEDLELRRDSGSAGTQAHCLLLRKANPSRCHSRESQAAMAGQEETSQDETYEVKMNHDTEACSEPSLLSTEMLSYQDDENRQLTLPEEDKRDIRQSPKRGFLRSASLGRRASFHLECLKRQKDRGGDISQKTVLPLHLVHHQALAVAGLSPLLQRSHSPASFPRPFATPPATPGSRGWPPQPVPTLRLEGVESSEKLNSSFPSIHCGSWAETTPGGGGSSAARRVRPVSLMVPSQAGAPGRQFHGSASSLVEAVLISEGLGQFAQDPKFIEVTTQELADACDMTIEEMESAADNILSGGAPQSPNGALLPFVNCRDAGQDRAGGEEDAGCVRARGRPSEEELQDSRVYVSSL

IC50 [1] [µM] | EC50 (isolated mouse hearts) [nM] | Structure (SMILES) | IC50 (human Cav1.2 channel) [µM]
> 10 | 13 | CC(C)C(=O)O[C@@]1(CCN(C)CCCc2nc3ccccc3[nH]2)C[C@H]2CC[C@@H]1C=C2c1ccc2ccccc2c1 (racemic) [Example 10A, rac-Isobutyric acid (1R*,2R*,4R*)-2-(2-{[3-(1H-benzoimidazol-2-yl)-propyl]-methyl-amino}-ethyl)-5-naphthalen-2-yl-bicyclo[2.2.2]oct-5-en-2-yl ester] | > 10
> 10 | – | CN(CCCc1nc2ccccc2[nH]1)CC[C@]1(O)C[C@H]2CC[C@@H]1C=C2c1ncco1 (racemic) [Example 25, rac-(1R*,2R*,4R*)-2-(2-{[3-(1H-Benzoimidazol-2-yl)-propyl]-methyl-amino}-ethyl)-5-oxazol-2-yl-bicyclo[2.2.2]oct-5-en-2-ol] | > 10
> 10 | – | CN(CCCc1nc2ccccc2[nH]1)CC[C@]1(O)C[C@@H]2C=C[C@H]1CC2 (racemic) [Example 75, rac-(1R*,2R*,4R*)-2-(2-{[3-(1H-Benzoimidazol-2-yl)-propyl]-methyl-amino}-ethyl)-bicyclo[2.2.2]oct-5-en-2-ol] | > 10
0.571 | 5 | COc1ccc(OC)c2[nH]c(CCCN(C)CC[C@]3(OC(=O)C(C)C)C[C@H]4CC[C@@H]3C=C4c3ccccc3)nc12 (relative stereo) [Example 61A, rac-Isobutyric acid (1R*,2R*,4R*)-2-(2-{[3-(4,7-dimethoxy-1H-benzoimidazol-2-yl)-propyl]-methyl-amino}-ethyl)-5-phenyl-bicyclo[2.2.2]oct-5-en-2-yl ester] | –
